In patent publication EP0323416A2, “Phenylbenzylidene derivatives of 3-aminopropanesulfonic acid having anticonvulsant activity and pharmaceutical compositions containing same for the therapeutical treatment of epilepsy” (Sigma-Tau Industrie Farmaceutiche Riunite S.p.A., priority 1987, dated 1989):
Marks after values point to notes of the source that are not given here.

Tests used:
[1] = test system: strychnine-induced convulsions; experiment: Strychnine-induced convulsions test in mice; type: in vivo, male albino Swiss (Charles River) mice
Procedure: (§1) The doses of cardiazol, strychinine, bicuculline and picrotoxin (100 mg/10 ml/kg i.p., 0.73 mg/10 ml/kg s.c., 2.38 mg/10 ml/kg s.c. and 4.42 mg/10 ml/kg s.c. respectively) were chosen in such a way as to provoke death of 50% of the control animals.
(§2) The tests were carried out in male albino Swiss (Charles River) mice weighing 22-24 g which had been kept fasting for 18 hours.
(§3) 100/0 gum arabic suspensions of the compounds under examination were orally administered 60 minutes before the convulsant agent administration.
(§4) As reference substance, 3-APS (200-400-800 mg/10 ml/kg i.p.) was used.

[2] = test system: cardiazol-induced convulsions; experiment: Cardiazol-induced convulsions test in mice; type: in vivo, male albino Swiss (Charles River) mice
Procedure: as §1, §2, §3, §4

[3] = test system: picrotoxin-induced convulsions; experiment: Picrotoxin-induced convulsions test in mice; type: in vivo, male albino Swiss (Charles River) mice
Procedure: as §1, §2, §3, §4

[4] = test system: bicuculline-induced convulsions; experiment: Bicuculline-induced convulsions test in mice; type: in vivo, male albino Swiss (Charles River) mice
Procedure: as §1, §2, §3, §4

male albino Swiss mice = experiment: Tolerability test, oral; type: in vivo; details: suspension in 10% gum arabic, dose of 3 g/kg, mice fasting for 18 hours
Procedure: The tolerability test was carried out on male albino Swiss mice weighing 22-24 g. The animals, which had been kept fasting for 18 hours, were orally administered a suspension in 10% gum arabic of the compounds ST 505 and ST 512.

auricular electroshock = experiment: Auricular electroshock (maximal electroshock death); type: in vivo, Male albino Swiss mice; details: oral in gum arabic 60 minutes before the electroshock, 10 mice
Procedure: Male albino Swiss mice weighing 22-24 g were used in this test. The electroshock conditions were the shock duration: 3 seconds; frequence: 100; pulse amplitude: 0.6 milliseconds, current intensity: 40 milliamperes. The compounds ST 505 and ST 512 suspended in gum arabic were orally administered 60 minutes before the electroshock.
The tests results which illustrate the number of animal preserved from death provoked by maximal electroshock are shown in the following Table 4.

[5] = 200, 400 and 800 mg/10 ml/kg i.p., mice
[6] = 400 mg/10 ml/kg i.p., mice, versus control
[7] = oral, 100 mg/kg eq. 3 APS, 60 minutes before convulsant, mice (Table 2)
[8] = oral, 200 mg/kg eq. 3 APS, 60 minutes before convulsant, mice (Table 2)

NCCCS(=O)(=O)O [3-APS, 3-aminopropanesulfonic acid]
Strychnine % Death rate ([1]; 200 mg/kg i.p., mice): 90%
Strychnine Strong % Conv. ([1]; 200 mg/kg i.p., mice): 100%
Strychnine % Death rate ([1]; 400 mg/kg i.p., mice): 100%
Strychnine Strong % Conv. ([1]; 400 mg/kg i.p., mice): 100%
Strychnine % Death rate ([1]; 800 mg/kg i.p., mice): 90%
Strychnine Strong % Conv. ([1]; 800 mg/kg i.p., mice): 100%
strychnine-induced death [1, 5]: did not preserve animals
Cardiazol % Death rate ([2]; 200 mg/kg i.p., mice): 50%
Cardiazol Strong % Conv. ([2]; 200 mg/kg i.p., mice): 100%
Cardiazol % Death rate ([2]; 400 mg/kg i.p., mice): 90%
Cardiazol Strong % Conv. ([2]; 400 mg/kg i.p., mice): 100%
Cardiazol % Death rate ([2]; 800 mg/kg i.p., mice): 60%
Cardiazol Strong % Conv. ([2]; 800 mg/kg i.p., mice): 100%
cardiazol-induced death [2, 5]: did not preserve animals
Picrotoxin % Death rate ([3]; 200 mg/kg i.p., mice): 20%
Picrotoxin Strong % Conv. ([3]; 200 mg/kg i.p., mice): 100%
picrotoxin-induced first convulsion latency time [3, 6]: significantly increased
Picrotoxin % Death rate ([3]; 400 mg/kg i.p., mice): 30%
Picrotoxin Strong % Conv. ([3]; 400 mg/kg i.p., mice): 100%
Picrotoxin % Death rate ([3]; 800 mg/kg i.p., mice): 70%
Picrotoxin Strong % Conv. ([3]; 800 mg/kg i.p., mice): 30%
picrotoxin-induced death [3, 5]: did not preserve animals
Bicuculline % Death rate ([4]; 200 mg/kg i.p., mice): 100%
Bicuculline Strong % Conv. ([4]; 200 mg/kg i.p., mice): 100%
latency time of bicuculline-induced death [4, 6]: significantly increased
Bicuculline % Death rate ([4]; 400 mg/kg i.p., mice): 75%
Bicuculline Strong % Conv. ([4]; 400 mg/kg i.p., mice, 8 animals per group): 100* %
Bicuculline % Death rate ([4]; 800 mg/kg i.p., mice): 40%
Bicuculline Strong % Conv. ([4]; 800 mg/kg i.p., mice): 70%
bicuculline-induced first convulsion latency time ([4]; 800 mg/kg i.p., mice, versus control): significantly increased
bicuculline-induced death [4, 5]: did not preserve animals

NS(=O)(=O)CCCN=C(c1ccccc1)c1ccccc1O [ST 512, 3-[(a-phenyl)-2-hydroxybenzylidene] amino propanesulfonamide]
Strychnine % Death rate [1, 7]: 80%
Strychnine Strong % Conv. [1, 7]: 90%
Strychnine % Death rate [1, 8]: 90%
Strychnine Strong % Conv. [1, 8]: 80%
tolerability (male albino Swiss mice): well tolerated
Cardiazol % Death rate [2, 7]: 50%
Cardiazol Strong % Conv. [2, 7]: 100%
Cardiazol % Death rate [2, 8]: 60%
Cardiazol Strong % Conv. [2, 8]: 100%
reduction of cardiazol-induced death rate ([2]; oral, dose equimolar to 100 mg/10ml/kg of 3-APS, mice): 20%
reduction of cardiazol-induced death rate ([2]; oral, dose equimolar to 200 mg/10ml/kg of 3-APS, mice): 10%
death rate (auricular electroshock; dose 200 (unit not given)): 3/10
death rate (auricular electroshock; dose 400 (unit not given)): 4/10
Picrotoxin % Death rate [3, 7]: 40%
Picrotoxin Strong % Conv. [3, 7]: 100%
Picrotoxin % Death rate [3, 8]: 50%
Picrotoxin Strong % Conv. [3, 8]: 100%
Bicuculline % Death rate [4, 7]: 100%
Bicuculline Strong % Conv. [4, 7]: 90%
Bicuculline % Death rate [4, 8]: 100%
Bicuculline Strong % Conv. [4, 8]: 100%
